The record followed here is patent US20250059179A1, “Heterocyclic Compounds and Methods of Use” (AMGEN INC., priority 2021, published 2025).

One assay deals with GDP-bound KRAS protein (aa 1-169), containing both G12D and C118A amino acid substitutions (Homo sapiens, UniProt P01116, C118A/G12D). In words: KRAS G12D Coupled Nucleotide Exchange Assay.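 Also: IC50 obtained by fitting the AlphaScreen signal with a four-parameter logistic curve.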 Conditions: 2 h compound pre-incubation; SOS-mediated nucleotide exchange, cRAF AlphaScreen readout. Type of assay: biochemical.
GDP-bound KRAS protein (aa 1-169), containing both G12D and C118A amino acid substitutions, sequence (P01116 1-169 isoform P01116-2 G12D/C118A): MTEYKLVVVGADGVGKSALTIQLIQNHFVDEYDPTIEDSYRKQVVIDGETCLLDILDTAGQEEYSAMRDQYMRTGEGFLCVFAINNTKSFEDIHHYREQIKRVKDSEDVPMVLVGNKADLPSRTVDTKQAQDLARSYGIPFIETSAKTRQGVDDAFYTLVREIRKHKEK
As to `CN1CCO[C@H]2CN(c3nc(N4CCNCC4)c4cc(Cl)c(-c5cccc6sc(N)nc56)c(F)c4n3)C[C@@H]21` (relative stereo) [Example 101, 4-(6-chloro-8-fluoro-2-(trans-4-methylhexahydropyrrolo[3,4-b][1,4]oxazin-6(2H)-yl)-4-(piperazin-1-yl)quinazolin-7-yl)benzo[d]thiazol-2-amine], the “Avg 2 h Coupled Exchange IC50” value came out at 1530 nM.

As to `CN1CCO[C@@H]2CN(c3nc(N4CCNCC4)c4cc(Cl)c(-c5cccc6sc(N)nc56)c(F)c4n3)C[C@@H]21` (relative stereo) [Example 103, 4-(6-chloro-8-fluoro-2-(cis-4-methylhexahydropyrrolo[3,4-b][1,4]oxazin-6(2H)-yl)-4-(piperazin-1-yl)quinazolin-7-yl)benzo[d]thiazol-2-amine], the “Avg 2 h Coupled Exchange IC50” value was 1710 nM.

As for `CNC1(C)CN(c2nc(N3CCNCC3)c3cc(Cl)c(-c4cccc5sc(N)nc45)c(F)c3n2)C1` [Example 77, 4-[6-chloro-8-fluoro-2-[3-methyl-3-(methylamino)azetidin-1-yl]-4-piperazin-1-yl-quinazolin-7-yl]-1,3-benzothiazol-2-amine], the “Avg 2 h Coupled Exchange IC50” value was 201 nM.

As to `Nc1nc2c(-c3c(Cl)cc4c(N5CCNCC5)nc(N5CC(N6CCCCC6)C5)nc4c3F)cccc2s1` [Example 78, 4-[6-chloro-8-fluoro-4-piperazin-1-yl-2-[3-(1-piperidyl)azetidin-1-yl]quinazolin-7-yl]-1,3-benzothiazol-2-amine], the “Avg 2 h Coupled Exchange IC50” value was found to be 280 nM.

For `CC1(N)CN(c2nc(N3CCNCC3)c3cc(Cl)c(-c4cccc5sc(N)nc45)c(F)c3n2)C1` [Example 79, 4-[2-(3-amino-3-methyl-azetidin-1-yl)-6-chloro-8-fluoro-4-piperazin-1-yl-quinazolin-7-yl]-1,3-benzothiazol-2-amine], the “Avg 2 h Coupled Exchange IC50” value came out at 359 nM.

As to `C[C@@H]1[C@@H](N)CN1c1nc(N2CCNCC2)c2cc(Cl)c(-c3cccc4sc(N)nc34)c(F)c2n1` [Example 80, 4-[2-[(2R,3S)-3-amino-2-methyl-azetidin-1-yl]-6-chloro-8-fluoro-4-piperazin-1-yl-quinazolin-7-yl]-1,3-benzothiazol-2-amine], the “Avg 2 h Coupled Exchange IC50” value was 377 nM.

For `CCC1(N)CN(c2nc(N3CCNCC3)c3cc(Cl)c(-c4cccc5sc(N)nc45)c(F)c3n2)C1` [Example 81, 4-[2-(3-amino-3-ethyl-azetidin-1-yl)-6-chloro-8-fluoro-4-piperazin-1-yl-quinazolin-7-yl]-1,3-benzothiazol-2-amine], the “Avg 2 h Coupled Exchange IC50” value turned out to be 437 nM.

As to `CN1CCC[C@H]1COc1nc(N2C3CCC2C(=O)NC3)c2cc(Cl)c(-c3cccc4sc(N)nc34)c(F)c2n1` (stereo partly drawn) [Example 82, 8-(7-(2-aminobenzo[d]thiazol-4-yl)-6-chloro-8-fluoro-2-(((S)-1-methylpyrrolidin-2-yl)methoxy)quinazolin-4-yl)-3,8-diazabicyclo[3.2.1]octan-2-one], the “Avg 2 h Coupled Exchange IC50” value was found to be 471 nM.

In the case of `Nc1nc2c(-c3c(Cl)cc4c(N5CCNCC5)nc(N5CC(N6CCC(O)CC6)C5)nc4c3F)cccc2s1` [Example 83, 1-[1-[7-(2-amino-1,3-benzothiazol-4-yl)-6-chloro-8-fluoro-4-piperazin-1-yl-quinazolin-2-yl]azetidin-3-yl]piperidin-4-ol], the “Avg 2 h Coupled Exchange IC50” value was 496 nM.

On to `Nc1nc2c(-c3c(Cl)cc4c(N5CCNCC5)nc(N5CC6(CCCN6)C5)nc4c3F)cccc2s1` [Example 84, 4-[6-chloro-2-(2,5-diazaspiro[3.4]octan-2-yl)-8-fluoro-4-piperazin-1-yl-quinazolin-7-yl]-1,3-benzothiazol-2-amine], for which the “Avg 2 h Coupled Exchange IC50” value was found to be 567 nM.

As to `Nc1nc2c(-c3c(Cl)cc4c(N5CCNCC5)nc(N5CC(N6CC(O)C6)C5)nc4c3F)cccc2s1` [Example 85, 1-[1-[7-(2-amino-1,3-benzothiazol-4-yl)-6-chloro-8-fluoro-4-piperazin-1-yl-quinazolin-2-yl]azetidin-3-yl]azetidin-3-ol], the “Avg 2 h Coupled Exchange IC50” value stood at 633 nM.

With `CC1(O)CN(C2CN(c3nc(N4CCNCC4)c4cc(Cl)c(-c5cccc6sc(N)nc56)c(F)c4n3)C2)C1` [Example 86, 1-[1-[7-(2-amino-1,3-benzothiazol-4-yl)-6-chloro-8-fluoro-4-piperazin-1-yl-quinazolin-2-yl]azetidin-3-yl]-3-methyl-azetidin-3-ol], the “Avg 2 h Coupled Exchange IC50” value was 648 nM.

For the compound `Nc1nc2c(-c3c(Cl)cc4c(N5CCNCC5)nc(N5CC(N6C[C@H]7COC[C@@H](C6)N7)C5)nc4c3F)cccc2s1` [Example 87, 4-(2-(3-((1R,5S)-3-oxa-7,9-diazabicyclo[3.3.1]nonan-7-yl)azetidin-1-yl)-6-chloro-8-fluoro-4-(piperazin-1-yl)quinazolin-7-yl)benzo[d]thiazol-2-amine], the “Avg 2 h Coupled Exchange IC50” value turned out to be 701 nM.

With `COC1CCN(C2CN(c3nc(N4CCNCC4)c4cc(Cl)c(-c5cccc6sc(N)nc56)c(F)c4n3)C2)CC1` [Example 88, 4-[6-chloro-8-fluoro-2-[3-(4-methoxy-1-piperidyl)azetidin-1-yl]-4-piperazin-1-yl-quinazolin-7-yl]-1,3-benzothiazol-2-amine], the “Avg 2 h Coupled Exchange IC50” value was 706 nM.

As for `CN(C1CN(c2nc(N3CCNCC3)c3cc(Cl)c(-c4cccc5sc(N)nc45)c(F)c3n2)C1)[C@@H]1CCOC1` [Example 89], the “Avg 2 h Coupled Exchange IC50” value is 895 nM.

As for `Nc1nc2c(-c3c(Cl)cc4c(N5CCNCC5)nc(N5CC(N6CC(F)C6)C5)nc4c3F)cccc2s1` [Example 90, 4-[6-chloro-8-fluoro-2-[3-(3-fluoroazetidin-1-yl)azetidin-1-yl]-4-piperazin-1-yl-quinazolin-7-yl]-1,3-benzothiazol-2-amine], the “Avg 2 h Coupled Exchange IC50” value was 1010 nM.

Turning to `CNC1CN(c2nc(N3CCNCC3)c3cc(Cl)c(-c4cccc5sc(N)nc45)c(F)c3n2)C1` [Example 91, 4-[6-chloro-8-fluoro-2-[3-(methylamino)azetidin-1-yl]-4-piperazin-1-yl-quinazolin-7-yl]-1,3-benzothiazol-2-amine], the “Avg 2 h Coupled Exchange IC50” value came to 1013 nM.

Consider `Nc1nc2c(-c3c(Cl)cc4c(N5CCNCC5)nc(N5CC(N6CCCC(O)C6)C5)nc4c3F)cccc2s1` (stereo not shown) [Example 92, 1-[1-[7-(2-amino-1,3-benzothiazol-4-yl)-6-chloro-8-fluoro-4-piperazin-1-yl-quinazolin-2-yl]azetidin-3-yl]piperidin-3-ol], for which the “Avg 2 h Coupled Exchange IC50” value was 1020 nM.

Regarding `Nc1nc2c(-c3c(Cl)cc4c(N5CCNCC5)nc(N5C[C@@H]6NCC[C@H]65)nc4c3F)cccc2s1` [Example 93, 4-[6-chloro-2-[(1S,5R)-2,6-diazabicyclo[3.2.0]heptan-6-yl]-8-fluoro-4-piperazin-1-yl-quinazolin-7-yl]-1,3-benzothiazol-2-amine], the “Avg 2 h Coupled Exchange IC50” value is 1140 nM.

For the compound `CN(C)C1CCN(c2nc(N3CCNCC3)c3cc(Cl)c(-c4cccc5sc(N)nc45)c(F)c3n2)C1` (stereo not shown) [Example 94, 4-[6-chloro-8-fluoro-4-piperazin-1-yl-2-[3-(dimethylamino)pyrrolidin-1-yl]quinazolin-7-yl]-1,3-benzothiazol-2-amine], the “Avg 2 h Coupled Exchange IC50” value was 1140 nM.

In the case of `CN(C)[C@@H]1CCN(c2nc(N3CCNCC3)c3cc(Cl)c(-c4cccc5sc(N)nc45)c(F)c3n2)C1` [Example 95, 4-[6-chloro-2-[(3R)-3-(dimethylamino)pyrrolidin-1-yl]-8-fluoro-4-piperazin-1-yl-quinazolin-7-yl]-1,3-benzothiazol-2-amine], the “Avg 2 h Coupled Exchange IC50” value worked out at 1180 nM.

As for `Nc1nc2c(-c3c(Cl)cc4c(N5CCNCC5)nc(N5CC(N)C5)nc4c3F)cccc2s1` [Example 96, 4-[2-(3-aminoazetidin-1-yl)-6-chloro-8-fluoro-4-piperazin-1-yl-quinazolin-7-yl]-1,3-benzothiazol-2-amine], the “Avg 2 h Coupled Exchange IC50” value was 1251 nM.

Consider `CNC1CCN(c2nc(N3CCNCC3)c3cc(Cl)c(-c4cccc5sc(N)nc45)c(F)c3n2)C1` (stereo not shown) [Example 97, 4-[6-chloro-8-fluoro-4-piperazin-1-yl-2-[3-(methylamino)pyrrolidin-1-yl]quinazolin-7-yl]-1,3-benzothiazol-2-amine], for which the “Avg 2 h Coupled Exchange IC50” value is 1270 nM.

As to `CN1CCC2CN(c3nc(N4CCNCC4)c4cc(Cl)c(-c5cccc6sc(N)nc56)c(F)c4n3)CC21` (stereo not shown) [Example 98, 4-(6-chloro-8-fluoro-2-(1-methylhexahydropyrrolo[3,4-b]pyrrol-5(1H)-yl)-4-(piperazin-1-yl)quinazolin-7-yl)benzo[d]thiazol-2-amine], the “Avg 2 h Coupled Exchange IC50” value was determined as 1310 nM.

On to `CN1CCCC2C1CCN2c1nc(N2CCNCC2)c2cc(Cl)c(-c3cccc4sc(N)nc34)c(F)c2n1` (stereo not shown) [Example 99, 4-(6-chloro-8-fluoro-2-(4-methyloctahydro-1H-pyrrolo[3,2-b]pyridin-1-yl)-4-(piperazin-1-yl)quinazolin-7-yl)benzo[d]thiazol-2-amine], for which the “Avg 2 h Coupled Exchange IC50” value was found to be 1400 nM.

Consider `CN(C1COC1)C1CN(c2nc(N3CCNCC3)c3cc(Cl)c(-c4cccc5sc(N)nc45)c(F)c3n2)C1` [Example 100, 4-[6-chloro-8-fluoro-2-[3-[methyl(oxetan-3-yl)amino]azetidin-1-yl]-4-piperazin-1-yl-quinazolin-7-yl]-1,3-benzothiazol-2-amine], for which the “Avg 2 h Coupled Exchange IC50” value came to 1500 nM.

In the case of `Nc1nc2c(-c3c(Cl)cc4c(N5CCNCC5)nc(N5CC6(CCN6)C5)nc4c3F)cccc2s1` [Example 102, 4-[6-chloro-2-(1,6-diazaspiro[3.3]heptan-6-yl)-8-fluoro-4-piperazin-1-yl-quinazolin-7-yl]-1,3-benzothiazol-2-amine], the “Avg 2 h Coupled Exchange IC50” value stood at 1550 nM.

The assay is the same for the next values; noted with them: read-out: Avg 2 h Coupled Exchange IC50; 2 h compound pre-incubation; SOS-mediated nucleotide exchange, cRAF AlphaScreen readout.
Consider `CN(C)C1(C)CN(c2nc(N3CCNCC3)c3cc(Cl)c(-c4cccc5sc(N)nc45)c(F)c3n2)C1` [Example 76], for which the IC50 amounted to 172 nM.
